Assay [1] concerns the target T1, AR (Homo sapiens, UniProt P10275).
T1 sequence (P10275 1-920): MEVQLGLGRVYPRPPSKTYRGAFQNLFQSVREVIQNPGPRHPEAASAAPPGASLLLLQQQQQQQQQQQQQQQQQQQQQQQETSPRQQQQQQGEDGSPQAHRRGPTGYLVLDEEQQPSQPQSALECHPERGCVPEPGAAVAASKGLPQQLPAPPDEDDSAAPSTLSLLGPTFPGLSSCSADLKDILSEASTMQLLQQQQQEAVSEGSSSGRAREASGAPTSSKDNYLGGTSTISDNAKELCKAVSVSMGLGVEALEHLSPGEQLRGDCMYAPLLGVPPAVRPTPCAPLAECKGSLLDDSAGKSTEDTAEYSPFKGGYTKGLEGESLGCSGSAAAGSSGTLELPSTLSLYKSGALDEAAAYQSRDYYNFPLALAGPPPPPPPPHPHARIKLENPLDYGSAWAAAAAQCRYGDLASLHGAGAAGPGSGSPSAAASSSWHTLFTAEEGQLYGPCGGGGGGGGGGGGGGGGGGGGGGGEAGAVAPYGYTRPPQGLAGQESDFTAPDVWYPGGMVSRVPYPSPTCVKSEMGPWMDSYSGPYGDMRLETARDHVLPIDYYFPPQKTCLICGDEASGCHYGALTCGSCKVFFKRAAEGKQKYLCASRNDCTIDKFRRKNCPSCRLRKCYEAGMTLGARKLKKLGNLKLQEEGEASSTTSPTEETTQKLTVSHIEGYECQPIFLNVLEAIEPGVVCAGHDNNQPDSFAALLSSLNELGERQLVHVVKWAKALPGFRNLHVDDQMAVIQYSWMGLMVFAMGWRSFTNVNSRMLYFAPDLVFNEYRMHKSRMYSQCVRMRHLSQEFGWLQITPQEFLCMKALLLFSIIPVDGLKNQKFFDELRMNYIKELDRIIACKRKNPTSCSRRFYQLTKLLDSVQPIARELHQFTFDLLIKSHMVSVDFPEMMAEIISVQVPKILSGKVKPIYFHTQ
In words: AR reporter gene assay in HEK293. The assay is classed as cell-based. Particulars: reporter gene assay, HEK293; agonist dihydrotestosterone 0.3 nM; read-out: AR antagonistic activity (IC50), AR reporter gene.

The target in assay [2] is T2, RORγ (Homo sapiens, UniProt P51449).
T2 construct: expressed in transfected cells; host or cells: HEK293
T2 sequence (P51449 1-518): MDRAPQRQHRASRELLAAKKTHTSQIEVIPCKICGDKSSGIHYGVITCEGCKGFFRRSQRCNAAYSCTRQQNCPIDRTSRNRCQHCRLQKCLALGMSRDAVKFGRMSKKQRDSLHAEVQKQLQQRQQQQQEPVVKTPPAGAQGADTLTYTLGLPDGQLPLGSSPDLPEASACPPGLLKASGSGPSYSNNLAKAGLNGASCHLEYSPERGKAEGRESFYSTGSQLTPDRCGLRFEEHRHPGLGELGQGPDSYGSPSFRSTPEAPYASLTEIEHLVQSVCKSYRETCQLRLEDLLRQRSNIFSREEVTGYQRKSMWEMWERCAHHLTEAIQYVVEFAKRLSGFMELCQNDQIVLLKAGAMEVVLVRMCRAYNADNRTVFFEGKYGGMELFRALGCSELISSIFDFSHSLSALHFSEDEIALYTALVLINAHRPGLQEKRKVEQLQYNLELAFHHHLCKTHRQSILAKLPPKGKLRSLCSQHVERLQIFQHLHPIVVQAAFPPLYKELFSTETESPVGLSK
Particulars: reporter gene assay, HEK293; read-out: RORγ inverse agonistic activity (IC50); cited from earlier work.

The target of assay [3] is T3, LXRβ (Homo sapiens, UniProt P55055).
T3 construct: CMX-GAL4N-hLXRβ-LBD; expressed in transfected cells; host or cells: HEK293
T3 sequence (P55055 222-460 limits assumed): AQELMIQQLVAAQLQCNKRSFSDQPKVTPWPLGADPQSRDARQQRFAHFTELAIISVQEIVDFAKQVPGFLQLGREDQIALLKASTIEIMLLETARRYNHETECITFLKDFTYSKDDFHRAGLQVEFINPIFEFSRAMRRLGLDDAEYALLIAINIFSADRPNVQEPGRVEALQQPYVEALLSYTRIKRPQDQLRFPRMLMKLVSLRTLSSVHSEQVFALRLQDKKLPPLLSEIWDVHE
In words: LXRβ reporter gene assay in HEK293. Particulars: read-out: LXRβ antagonistic activity (IC50). The assay is classed as cell-based. (Reporter assays use an easily measured gene product as a stand-in for the process of interest.)

Assay [4] concerns the target T4, RORα (Homo sapiens, UniProt P35398).
T4 construct: expressed in transfected cells; host or cells: HEK293
T4 sequence (P35398 1-523): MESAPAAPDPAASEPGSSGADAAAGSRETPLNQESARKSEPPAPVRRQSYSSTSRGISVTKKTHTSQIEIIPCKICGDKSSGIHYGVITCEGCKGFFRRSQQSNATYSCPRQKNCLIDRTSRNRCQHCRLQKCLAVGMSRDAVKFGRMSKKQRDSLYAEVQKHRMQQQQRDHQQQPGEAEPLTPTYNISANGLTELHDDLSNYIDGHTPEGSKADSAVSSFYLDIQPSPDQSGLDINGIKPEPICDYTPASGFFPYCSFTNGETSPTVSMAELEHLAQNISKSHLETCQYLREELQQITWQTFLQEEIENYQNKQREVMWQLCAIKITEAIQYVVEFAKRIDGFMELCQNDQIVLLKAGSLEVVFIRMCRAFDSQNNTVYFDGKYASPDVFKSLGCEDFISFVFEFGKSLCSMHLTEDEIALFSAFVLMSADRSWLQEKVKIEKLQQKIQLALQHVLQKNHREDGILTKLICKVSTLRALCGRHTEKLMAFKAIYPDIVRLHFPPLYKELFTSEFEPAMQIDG
Particulars: reporter gene assay, HEK293; read-out: RORα inverse agonistic activity (IC50); cited from earlier work.

Assay [5] has as its target T5, LXRα (Homo sapiens, UniProt Q13133).
T5 construct: CMX-GAL4N-hLXRα-LBD; expressed in transfected cells; host or cells: HEK293
T5 sequence (Q13133 209-447 limits assumed): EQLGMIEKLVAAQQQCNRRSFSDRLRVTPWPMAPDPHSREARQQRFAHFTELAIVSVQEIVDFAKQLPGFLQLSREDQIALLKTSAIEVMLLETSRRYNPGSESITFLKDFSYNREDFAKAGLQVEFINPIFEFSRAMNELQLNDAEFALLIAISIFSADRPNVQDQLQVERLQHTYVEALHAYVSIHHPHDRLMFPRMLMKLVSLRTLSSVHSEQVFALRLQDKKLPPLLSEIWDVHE
In words: LXRα reporter gene assay in HEK293. The assay is classed as cell-based. The settings on record: read-out: LXRα antagonistic activity (IC50).

The pIC50 is the IC50 on a negative log10 scale, so that one unit is a factor of ten.

pIC50: −log10 of the molar value.

As to `CCCc1cc(C(O)(C(F)(F)F)C(F)(F)F)cc2c1[nH]c(=O)c1ccccc12` [Compound 42], the pIC50 in assay [1] was 5.27; in assay [2], 5.00; in assay [3] it was 4.70; in assay [4], < 4.70; in assay [5], < 4.70.

Turning to `CCCCn1c(=O)c2ccccc2c2c(OC)c(C(O)(C(F)(F)F)C(F)(F)F)ccc21` [Compound 18], the pIC50 in assay [1], in assay [2], in assay [3], in assay [4] and in assay [5] was < 4.70 each time.

On to `CCCCn1c(=O)c2cc(OC)ccc2c2cc(C(O)(C(F)(F)F)C(F)(F)F)ccc21` [Compound 22], for which the negative-log IC50 (pIC50) in assay [1] is 6.00; in assay [2], 4.89; in assay [3], 4.96; in assay [4], 4.92; in assay [5], 4.92.

As for `CCCCn1c(=O)c2cccc(OC)c2c2cc(C(O)(C(F)(F)F)C(F)(F)F)ccc21` [Compound 24], the negative logarithm of the IC50 (pIC50) in assay [1] is < 4.70; in assay [2], 5.07; in assay [3] it was 5.37; in assay [4], 5.11; in assay [5], 5.34.

Consider `CCCCn1c(=O)c2ccc(OC)cc2c2cc(C(O)(C(F)(F)F)C(F)(F)F)ccc21` [Compound 23], for which the pIC50 is < 4.70 in assay [1]; 5.57 in assay [2]; 5.62 in assay [3]; 5.18 in assay [4]; 5.15 in assay [5].

`CCn1c(=O)c2ccccc2c2cc(C(O)(C(F)(F)F)C(F)(F)F)ccc21` [Compound 14]: the pIC50 is 5.77 in assay [1]; < 4.70 in assay [2]; 5.18 in assay [3]; < 4.70 in assay [4]; 4.85 in assay [5].

On to `CCCCn1c(=O)c2ccccc2c2cc(C(C)(C)C)ccc21` [Compound 10], for which the pIC50 in assay [1] was 4.77; in assay [2], 5.00; in assay [3], < 4.70; in assay [4], 4.92; in assay [5] it was < 4.70.

For the compound `O=c1[nH]c2c(F)cc(C(O)(C(F)(F)F)C(F)(F)F)cc2c2ccccc12` [Compound 32], the pIC50 in assay [1] is 6.41; in assay [2], 4.74; in assay [3] it was 5.34; in assay [4], 4.82; in assay [5], 5.51.

In the case of `CCCCn1c(=O)c2cc(OC)c(OC)cc2c2cc(C(O)(C(F)(F)F)C(F)(F)F)ccc21` [Compound 31], the negative logarithm of the IC50 (pIC50) is 5.80 in assay [1]; 4.72 in assay [2]; 5.05 in assay [3]; 4.74 in assay [4]; 5.06 in assay [5].

For `CCCCn1c(=O)c2ccccc2c2cc(C(O)(C(F)(F)F)C(F)(F)F)c3c(c21)OCO3` [Compound 26], the pIC50 in assay [1] was 6.27; in assay [2], < 4.70; in assay [3], < 4.70; in assay [4] it was < 4.70; in assay [5], < 4.70.

With `CCCCn1c(=O)c2cc(OC)ccc2c2cc(C(O)(C(F)(F)F)C(F)(F)F)c(OC)cc21` [Compound 27], the pIC50 in assay [1] was 6.24; in assay [2], 4.92; in assay [3], 4.74; in assay [4], 5.02; in assay [5], 4.77.

With `CCCCCCCCCn1c(=O)c2ccccc2c2cc(C(O)(C(F)(F)F)C(F)(F)F)ccc21` [Compound 17], the negative logarithm of the IC50 (pIC50) in assay [1] is 4.82; in assay [2], < 4.70; in assay [3], < 4.70; in assay [4] it was < 4.70; in assay [5], < 4.70.

For the compound `CCCCn1c(=O)c2ccccc2c2cc(C(O)(C(F)(F)F)C(F)(F)F)c(OC)c(OC)c21` [Compound 25], the pIC50 in assay [1] is 5.21; in assay [2] it was 5.07; in assay [3], 5.02; in assay [4] it was < 5.00; in assay [5], 5.07.

For `CCCCn1c(=O)c2c(OC)c(OC)ccc2c2cc(C(O)(C(F)(F)F)C(F)(F)F)ccc21` [Compound 29], the negative-log IC50 (pIC50) in assay [1] is 5.34; in assay [2], 5.10; in assay [3], 5.49; in assay [4], 5.14; in assay [5], 5.49.

In the case of `COc1cc(C(O)(C(F)(F)F)C(F)(F)F)cc2c1[nH]c(=O)c1ccccc12` [Compound 39], the negative logarithm of the IC50 (pIC50) was < 4.70 in assay [1]; 5.02 in assay [2]; < 4.70 in assay [3]; < 4.70 in assay [4]; < 4.70 in assay [5].

As to `O=c1[nH]c2ccc(C(O)(C(F)(F)F)C(F)(F)F)cc2c2cccc(F)c12` [Compound 33], the pIC50 in assay [1] was 6.34; in assay [2], 4.89; in assay [3] it was 5.51; in assay [4] it was 5.10; in assay [5], 5.51.
